The results in this text go back to patent publication US12569459B2, “Compositions and methods for treating pulmonary edema or lung inflammation” (priority 2020, dated 2026).

The subject of the assay is RLE-6TN cells. The experiment in a line: RLE-6TN cell survival under hyperoxia, viable cells by trypan blue exclusion. It is filed as cell-based, rat. On the procedure:
FIG. 7. […] The cells were cultured in DMEM/F12 with 10% FBS in 21% O2 and 5% CO2 overnight. […] The viable cells are counted immediately after 72-hour hyperoxia exposure. Cell viability is assessed with trypan blue. Viable cells under specific conditions are presented as a percentage of the cell number from hyperoxia alone. Data are mean±s.d. of four independent experiments with *=P<0.05; **=P<0.01.
FIG. 8. […] In both (A) and (B), the number of viable cells under specific conditions is presented as a percentage of the cell number related to hyperoxia alone in the same experiment. Data are mean±s.d. of four independent experiments with *=P<0.05; **=P<0.01.
FIG. 10. HO-1 Upregulation is required for T3-increased RLE-6TN cell survival in hyperoxia. […] The cells were then collected for Western Blot analysis. (B) The cells were incubated in 21% O2 and 5% CO2 for 72 hours in the present of HO-1 inhibitor Tin Protoporphyrin IX(10^−6 M) tinT3 (10^−6 M). […] Cell viability is assessed with trypan blue. The number of viable cells under specific conditions is presented as a percentage of the cell number related to hyperoxia alone. Data are mean±s.d. of three independent experiments with *=P<0.05; **=P<0.01.
FIG. 11. PI3K inhibitor wortmannin blocked T3-induced cell survival in hyperoxia. […] Cell viability is assessed with trypan blue. The number of viable cells under specific conditions is presented as a percentage of the cell number related to hyperoxia alone. Data are mean±s.d. of four independent experiments with *=P<0.05; **=P<0.01.
At the end of the hyperoxia exposure period, the viable cells were counted by trypan blue dye exclusion.

SMILES strings stand for the structures.

`C=Cc1c2[n-]c(c1C)/C=c1\[n-]/c(c(C)c1C=C)=C\c1[n-]c(c(CCC(=O)O)c1C)C=c1[n-]/c(c(C)c1CCC(=O)O)=C\2.[Sn+4]` [Tin protoporphyrin, Tin Protoporphyrin IX]: where the note is “21% O2 72 hours, 10^−6 M”, the “Effect on AT2 cell number in room air” value is listed as “had no effect on AT2 cell number in room air”. Besides, the “Effect on T3-caused increase in cell survival in hyperoxia” value (90% O2 72 hours, T3 10^−6 M, Tin Protoporphyrin 10^−6 M) is “blocked the T3-caused increase in cell survival and augmented cell death”. `N[C@@H](Cc1ccc(Oc2cc(I)c(O)c(I)c2)c(I)c1)C(=O)O` [rT3]: where the note is “90% oxygen 72 hours, 10^−6 M”, the “Effect on cell survival under hyperoxia” value is on record as “had no role in cell survival”.
